The subject of one test is MORFN complex. In words: HAT assay, WT MORFN complex overexpressed in 293T cells. Format: biochemical. The following applies: H3 peptides residues 1–29, 3H-Ac-CoA, pH 8, 30 min at 30 °C, CPM, n = 2.
The next test relates to native MORF complex. Description: HAT assay, native MORF complex from K562 cells. Format: biochemical, Homo sapiens. The following applies: native WT MORF complex; H3 peptides residues 1–29, 3H-Ac-CoA, pH 8, 30 min at 30 °C; scintillation CPM; n = 2.
For a further test, the system named is MORFN F287A complex. Description: HAT assay, MORFN F287A complex overexpressed in 293T cells. The class given is biochemical. The settings on record: H3K23ac peptide residues 1–29, 3H-Ac-CoA, pH 8, 30 min at 30 °C, CPM, n = 2. The protocol:
Cells were harvested 48 h post-co-transfection and lysed in high-salt buffer (450 mM NaCl, 50 mM Tris-HCl (pH 8.0), 1% TX-100, 2 mM MgCl2, 0.1 mM ZnCl2, 2 mM EDTA, 10% glycerol) supplemented with protease inhibitor mixture. The NaCl concentration was reduced to 225 mM and the whole cell extract centrifuged at 14,000 rpm for 30 min. […] FLAG beads were next washed with the 225 mM NaCl buffer and eluted with 200 μg/ml of 3× FLAG peptide (Sigma).
In Fig. 4e and Supplementary Fig. 7, FLAG-tagged MORF proteins were overexpressed and prepared from transiently transfected 293T cells. Briefly, approximately 2 mg of total cell extract was incubated with 25 μl of M2-agarose beads (Sigma) overnight at 4 °C. […]
Acetyltransferase activity of the purified complexes was measured with 0.125 µCi of ^3H labeled Ac-CoA (2.1 Ci/mmol; PerkinElmer Life Sciences). […] The reactions were then captured on P81 filter paper, the free H3-labeled Ac-CoA was washed away and the paper was analyzed using Liquid Scintillation. […]
In Fig. 4e and Supplementary Fig. 7, purified MORF proteins were incubated at 37 °C for indicated times with peptides (1 μg) and 0.1 mM acetyl-CoA in HAT reaction buffer (50 mM Tris, pH 8.0, 0.1 mM EDTA, 10% glycerol, 1 mM PMSF, and 1 mM DTT) in a total volume of 50 μL. Reactions were quenched by flash-freezing in liquid nitrogen and then analyzed by SDS-PAGE and Western blot.

The source of these data is publication PMC6797804, “Histone H3K23-specific acetylation by MORF is coupled to H3K14 acylation” (Nature Communications, 2019).

Source text for MORFN complex: (§1) The amounts of native (K562) or overexpressed (293T) MORF complexes were normalized empirically following SDS-PAGE and transfer onto nitrocellulose membrane. Anti-FLAG M2 conjugated to horseradish peroxydase (HRP; Sigma) was used at a 1:10,000 dilution and the immunoblots were visualized using a Western Lightning plus-ECL reagent (Perkin-Elmer). Anti-HA-HRP (clone 3F10, Roche) was used at a 1:2000 dilution.
Procedure for native MORF complex: For purification of native complexes, after large-scale expansion of K562 clones, tandem affinity purifications (TAP) of MORF and MOZ complexes were performed on nuclear extracts as previously described[43]. Briefly, nuclear extracts were prepared following standard procedures and precleared with CL6B Sepharose beads.
as §1

In the case of “H3K23ac: H3 peptide (residues 1–29) pre-acetylated at Lys23”, the “decrease in HAT activity relative to unmodified H3 peptide” value is listed as ~ 7 fold with MORFN complex (WT MORFN complex (293T)) and ~ 12 fold with native MORF complex. In addition, the “HAT activity of MORFN complex, in words” value in the test with MORFN complex (WT MORFN complex) is listed as “substantially reduced residual enzymatic activity”. Further, the “HAT activity of MORFN F287A complex, in words” value with MORFN F287A complex was “substantially reduced residual enzymatic activity”.
